Converted amounts (≈) assume the structure as drawn. Where only a bound is given, the exact number is not on record here.

For series [1], the target named is Hydroxycarboxylic acid receptor 1 (Homo sapiens, UniProt Q9BXC0). Nature of the series: Agonist activity at human GPR81 overexpressed in CHO cells assessed as inhibition of forskolin-stimulated cAMP production. In kind it is functional, cell-based. For orientation: Cyclic AMP is a second messenger, typically raised through Gs and lowered through Gi signalling.

Series [2] is described as follows: Distribution coefficient, logD of compound at pH 7.4. In kind it is physicochemical. As to conditions: octanol/water.
Series [3] in a line: Solubility of compound. It counts as physicochemical.
The target of series [4] is Hydroxycarboxylic acid receptor 2 (Homo sapiens, UniProt Q8TDS4). Nature of the series: Agonist activity at human GPR109A receptor.
Series [5] concerns the target Growth hormone secretagogue receptor type 1 (Homo sapiens, UniProt Q92847). Nature of the series: Displacement of [125I]-ghrelin from human GHS-R1a stably expressed in HEK cell membrane measured after 60 mins by gamma counter method. In kind it is cell membranes. On the technique in general: Displacement assays read how much labelled ligand stays bound in the presence of the test substance.

For the next series, the species on record is Homo sapiens. Nature of the series: Selectivity index, ratio of IC50 for displacement of [125I]-ghrelin from human GHS-R1a stably expressed in HEK cell membrane measured after 60 mins by gamma counter method to EC50 for agonist activity at human GPR81 overexpressed in CHO cells assessed as inhibition of forskolin-stimulated cAMP production. In kind it is cell membranes.

Chain of Growth hormone secretagogue receptor type 1 (Q92847 whole entry): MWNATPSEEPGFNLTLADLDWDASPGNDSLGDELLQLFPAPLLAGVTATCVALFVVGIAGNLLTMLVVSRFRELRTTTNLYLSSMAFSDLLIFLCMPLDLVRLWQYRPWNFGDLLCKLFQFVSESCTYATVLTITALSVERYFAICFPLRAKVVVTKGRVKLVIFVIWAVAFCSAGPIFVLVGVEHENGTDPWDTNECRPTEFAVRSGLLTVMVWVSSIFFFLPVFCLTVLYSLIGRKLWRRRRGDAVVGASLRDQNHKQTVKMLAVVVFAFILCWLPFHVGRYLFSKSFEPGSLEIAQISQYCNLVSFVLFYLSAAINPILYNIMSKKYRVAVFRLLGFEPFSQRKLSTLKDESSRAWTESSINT
Chain of Hydroxycarboxylic acid receptor 1 (Q9BXC0 whole entry): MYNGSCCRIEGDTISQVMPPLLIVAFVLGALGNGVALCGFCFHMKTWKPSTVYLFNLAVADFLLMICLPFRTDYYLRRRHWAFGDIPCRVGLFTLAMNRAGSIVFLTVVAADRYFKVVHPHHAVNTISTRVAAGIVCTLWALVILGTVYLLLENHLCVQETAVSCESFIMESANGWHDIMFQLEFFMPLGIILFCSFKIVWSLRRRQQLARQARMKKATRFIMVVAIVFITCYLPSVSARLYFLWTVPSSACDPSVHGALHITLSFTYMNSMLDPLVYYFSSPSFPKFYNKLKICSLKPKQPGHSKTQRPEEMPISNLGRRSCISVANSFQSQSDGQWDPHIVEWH
Chain of Hydroxycarboxylic acid receptor 2 (Q8TDS4 whole entry): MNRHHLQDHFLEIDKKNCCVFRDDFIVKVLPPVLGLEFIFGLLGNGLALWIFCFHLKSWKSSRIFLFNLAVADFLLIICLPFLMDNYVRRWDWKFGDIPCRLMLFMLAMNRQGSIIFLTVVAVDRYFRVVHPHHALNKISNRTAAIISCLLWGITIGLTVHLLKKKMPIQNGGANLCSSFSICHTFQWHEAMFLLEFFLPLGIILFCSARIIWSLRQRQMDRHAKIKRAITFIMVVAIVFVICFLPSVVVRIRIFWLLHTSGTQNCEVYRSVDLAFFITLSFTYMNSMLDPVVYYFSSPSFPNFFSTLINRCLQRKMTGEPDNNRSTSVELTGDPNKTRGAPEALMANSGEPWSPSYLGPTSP

For orientation: EC50 means the concentration that produces a half-maximal response. Usually logD stands for lipophilicity at a set pH, counting ionised and neutral species. Consider `CCOc1cc(Cl)c(C(=O)NC(=O)Nc2nc3c(s2)CN(C(C)=O)CC3)cc1N1CCOCC1`, for which, in series [1], the EC50 was found to be 719 nM. Moreover, the logD in series [2] was 2.3.

As for `CCOc1cc(Cl)c(C(=O)NC(=O)Nc2nc3ccc(CN4CCN(C)CC4)cc3s2)cc1-n1cccc1`, in series [1], the EC50 worked out at 22 nM. In series [2], this molecule displayed a logD of 4.

As usually defined, the solubility is the dissolved amount per volume that the medium holds. One may read the IC50 as the concentration that inhibits the measured activity by half. Low values mean higher potency, high ones lower potency. In series [3], `CCOc1cc(Cl)c(-c2ccc(-c3nc4ccccc4s3)c(=O)[nH]2)cc1N1CCOCC1` returned a solubility of under 0.7 µM. Moreover, the EC50 in series [1] came to 21 nM; in series [4], 610 nM. The molecule further gave an IC50 in series [5] of 1300 nM. Besides, the logD in series [2] is over 3.8.

Turning to `CCOc1cc(Cl)c(-c2ccc(-c3nc4c(s3)CN(C(=O)COC)CC4)c(=O)[nH]2)cc1N1CCOCC1`, the concentration in solution in series [3] (solubility) was 29 µM (≈ 15.8 µg/mL). The EC50 in series [1] turned out to be 75 nM; in series [4] it was 1900 nM. For the same molecule, the IC50 in series [5] was over 50000 nM. This molecule displayed a logD in series [2] of 2.6.

Regarding `CCOc1cc(Cl)c(C(=O)Nc2nc3ccc(S(=O)(=O)CCCN4CCN(C)CC4)cc3s2)cc1N1C[C@H](C)O[C@@H](C)C1`, the solubility in series [3] lay in the range of 155 to 231 µM (≈ 101 to 150 µg/mL). Besides, the EC50 in series [1] lay within 270 to 350 nM; in series [4], 1400 to 3200 nM. In addition, the IC50 in series [5] was in the range of 10000 to 14000 nM. Moreover, the pH-dependent lipophilicity (logD) in series [2] was 3. The Ratio IC50/EC50 in the series filed under Homo sapiens is over 80.

For the molecule `CCOc1cc(C(F)(F)F)c(C(=O)NC(=O)Nc2nc3ccc(CN4CCN(C)CC4)cc3s2)cc1N1CCOCC1`, the EC50 in series [1] came out at 1400 nM. In addition, in series [2], the logD came to 3.3.

As for `CCOc1cc(Cl)c(-c2ncc(-c3nc4ccccc4s3)c(=O)[nH]2)cc1N1CCOCC1`, the solubility in series [3] was under 0.31 µM. Further, the EC50 in series [1] is 490 nM; in series [4] it was over 22000 nM. The molecule further showed an IC50 in series [5] of 5200 nM. This molecule yielded a logD in series [2] of 3.9.

`CCOc1cc(Cl)c(C(=O)Nc2nc3ccc(S(=O)(=O)CCCN4CCN(C)CC4)cc3s2)cc1N1CCOCC1`: the solubility in series [3] amounted to 323 µM (≈ 201 µg/mL). In addition, the EC50 in series [1] was 600 nM; in series [4], over 6300 nM. Further, the IC50 in series [5] was over 50000 nM. Also, the logD in series [2] was 2. Further, the Ratio IC50/EC50 in the series filed under Homo sapiens was over 80.

`CCOc1cc(Cl)c(C(=O)NC(=O)Nc2nc3ccc(CN4CCN(C)CC4)cc3s2)cc1-c1ccn[nH]1`: in series [1], the concentration giving a half-maximal response (EC50) is 360 nM. Further, the log distribution coefficient (logD) in series [2] was 3.9.

`CCOc1cc(Cl)c(C(=O)Nc2nc3ccc(S(=O)(=O)CCCN4CCN(C)CC4)cc3s2)cc1N1C[C@@H](C)O[C@@H](C)C1`: the solubility in series [3] turned out to be 95 µM (≈ 61.8 µg/mL). Moreover, the EC50 came out at 54 nM in series [1] and 660 nM in series [4]. This molecule registered an IC50 in series [5] of 27000 nM. The molecule further had a logD in series [2] of 2.7. Further, the Ratio IC50/EC50 in the series filed under Homo sapiens came out at 500.

For `CCOc1cc(Cl)c(CNC(=O)Nc2nc3ccc(CN4CCN(C)CC4)cc3s2)cc1N1CCOCC1`, the solubility in series [3] amounted to 188 µM (≈ 105 µg/mL). For the same molecule, the EC50 in series [1] is over 33000 nM. For the same molecule, the IC50 in series [5] is over 4970 nM. This molecule had a logD in series [2] of 3.2.

Consider `CCOc1cc(Cl)c(C(=O)Nc2nc3ccc(OC4CCN(C)CC4)cc3s2)cc1N1CCOCC1`, for which the concentration in solution in series [3] (solubility) was 5 µM (≈ 2.66 µg/mL). In addition, the EC50 in series [1] was 110 nM; in series [4], 1600 nM. Further, the IC50 in series [5] was over 30000 nM. Further, in series [2], the logD was found to be 2.9. The Ratio IC50/EC50 in the series filed under Homo sapiens is over 80.

In turn, `CCOc1cc(Cl)c(NC(=O)Nc2nc3ccc(CN4CCN(C)CC4)cc3s2)cc1N1CCOCC1` yielded a solubility in series [3] of 20 µM (≈ 10.9 µg/mL). Also, in series [1], the EC50 is over 33000 nM. Further, the IC50 in series [5] is over 50000 nM.

Take `CCOc1cc(Cl)c(C(=O)NC(=O)Nc2ncc(-c3ccccc3)s2)cc1N1CCOCC1`: in series [1], the EC50 was determined as 103 nM. Moreover, the logD in series [2] was determined as 4.2.

The molecule `CCOc1cc(Cl)c(-c2ccc(-c3nc4c(s3)CN(C(=O)CO)CC4)c(=O)[nH]2)cc1N1CCOCC1` had a solubility in series [3] of 7 µM (≈ 3.72 µg/mL). The values for the half-maximal effective concentration (EC50) in series [1] and in series [4] were 22 nM and 910 nM, respectively. The molecule also showed an IC50 in series [5] of 1900 nM. Further, the logD in series [2] is 2.4.

On to `CCOc1cc(Cl)c(C(=O)NC(=O)Nc2nc3ccc(S(=O)(=O)C4CCN(C)CC4)cc3s2)cc1N1CCOCC1`, for which, in series [1], the EC50 was found to be 166 nM. The same molecule came in with a pH-dependent lipophilicity (logD) in series [2] of 2.2.

In series [3], `CCOc1cc(Cl)c(C(=O)Nc2nc3ccccc3s2)cc1N1CCOCC1` gave a solubility of 0.09 µM (≈ 0.0376 µg/mL). Besides, the results for the concentration for a half-maximal effect (EC50) in series [1] and in series [4] were 1900 nM and 12000 nM, respectively. This molecule came in with an IC50 in series [5] of over 50000 nM. In series [2], this molecule had a logD of 4.3. Besides, in the series listed under Homo sapiens, the Ratio IC50/EC50 was over 80.

Consider `CCOc1cc(Cl)c(C(=O)NC(=O)Nc2nc3ccc(CN4CCN(C)CC4)cc3s2)cc1-n1cccn1`, for which the EC50 in series [1] amounted to 19 nM. The molecule further registered a logD in series [2] of 3.8.

Consider `CCOc1cc(Cl)c(C(=O)NC(=O)Nc2ncc(C)s2)cc1N1CCOCC1`, for which the EC50 in series [1] is 769 nM. For the same molecule, the logD in series [2] was 3.2.

`CCOc1cc(Cl)c(-c2ncc(-c3nc4ccc(S(=O)(=O)C5CCN(C)CC5)cc4s3)c(=O)[nH]2)cc1N1CCOCC1` registered a solubility in series [3] of 61 µM (≈ 38.4 µg/mL). The values for the EC50 in series [1] and in series [4] were 240 nM and 1600 nM, respectively. The molecule also gave an IC50 in series [5] of over 18000 nM. In addition, the logD in series [2] was 1.6.

Take `CCOc1cc(Cl)c(C(=O)NC(=O)Nc2cc3ccccc3s2)cc1N1CCOCC1`: the EC50 in series [1] stood at 260 nM. In series [2], this molecule displayed a logD of 4.4.

For `CCOc1cc(Cl)c(C(=O)NC(=O)Nc2nc3c(s2)CCCC3)cc1N1CCOCC1`, the EC50 in series [1] came to 120 nM.

As to `CCOc1cc(Cl)c(C(=O)Nc2nc3ccc(CN4CCN(C)CC4)cc3s2)cc1N1CCOCC1`, in series [3], the solubility was 1.5 µM (≈ 0.795 µg/mL). The EC50 was 410 nM in series [1] and over 11000 nM in series [4]. For the same molecule, in series [5], the IC50 is over 50000 nM. This molecule also showed a pH-dependent lipophilicity (logD) in series [2] of 2.8. The Ratio IC50/EC50 in the series filed under Homo sapiens was over 80.

As to `CCOc1cc(Cl)c(C(=O)N(C)C(=O)Nc2nc3ccc(CN4CCN(C)CC4)cc3s2)cc1N1CCOCC1`, in series [3], the concentration in solution (solubility) came to 492 µM (≈ 289 µg/mL). Also, the EC50 in series [1] was over 16000 nM. In series [5], this molecule came in with an IC50 of over 50000 nM. This molecule had a logD in series [2] of 2.5.

In the case of `CCOc1ccc(C(=O)NC(=O)Nc2nc3ccc(CN4CCN(C)CC4)cc3s2)c(Cl)c1`, the EC50 in series [1] is 560 nM. In addition, the logD in series [2] came out at 3.4.

Turning to `CCOc1cc(C)c(C(=O)NC(=O)Nc2nc3ccc(CN4CCN(C)CC4)cc3s2)cc1N1CCOCC1`, the EC50 in series [1] is over 3700 nM. The molecule also came in with a logD in series [2] of 2.9.

Turning to `CCOc1cc(Cl)c(C(=O)NC(=O)Nc2nc3ccc(CN4CCN(C)CC4)cc3s2)cc1N1CCCC1`, the EC50 in series [1] came to 13 nM. In series [2], this molecule came in with a log distribution coefficient (logD) of 4.

For the molecule `CCOc1cc(Cl)c(C(=O)NC(=O)Nc2nc3ccc(CN4CCN(C)CC4)cc3s2)cc1N1CCO[C@H](C)C1`, in series [1], the EC50 turned out to be 32 nM. This molecule also returned a logD in series [2] of 3.3.

For the molecule `CCOc1cc(Cl)c(-c2ccc(-c3nc4ccc(S(=O)(=O)C5CCN(C)CC5)cc4s3)c(=O)[nH]2)cc1N1CCOCC1`, the solubility in series [3] is under 0.5 µM. The EC50 in series [1] is 5 nM; in series [4], 37 nM. The IC50 in series [5] amounted to 460 nM. The same molecule yielded a logD in series [2] of 3.4.

As for `CCOc1cc(Cl)c(C(=O)NC(=O)Nc2nc3ccccc3s2)cc1N1CCOCC1`, the EC50 in series [1] was 299 nM. The same molecule returned a logD in series [2] of 4.

Turning to `CCOc1cc(Cl)c(C(=O)NC(=O)Nc2nc3c(s2)CN(C(=O)CO)CC3)cc1N1CCOCC1`, the EC50 in series [1] stood at 895 nM. The logD in series [2] came out at 1.7.

The values are drawn from ChEMBL document CHEMBL4610061, “Identification of novel GPR81 agonist lead series for target biology evaluation” (Bioorg Med Chem Lett, 2020).
